One experiment addresses T1, human FSH receptor (Homo sapiens, UniProt P23945).
T1 construct: expressed in transfected cells; host or cells: CHO cells transfected with human FSH receptor and CRE-luciferase reporter
T1 sequence (P23945 18-695): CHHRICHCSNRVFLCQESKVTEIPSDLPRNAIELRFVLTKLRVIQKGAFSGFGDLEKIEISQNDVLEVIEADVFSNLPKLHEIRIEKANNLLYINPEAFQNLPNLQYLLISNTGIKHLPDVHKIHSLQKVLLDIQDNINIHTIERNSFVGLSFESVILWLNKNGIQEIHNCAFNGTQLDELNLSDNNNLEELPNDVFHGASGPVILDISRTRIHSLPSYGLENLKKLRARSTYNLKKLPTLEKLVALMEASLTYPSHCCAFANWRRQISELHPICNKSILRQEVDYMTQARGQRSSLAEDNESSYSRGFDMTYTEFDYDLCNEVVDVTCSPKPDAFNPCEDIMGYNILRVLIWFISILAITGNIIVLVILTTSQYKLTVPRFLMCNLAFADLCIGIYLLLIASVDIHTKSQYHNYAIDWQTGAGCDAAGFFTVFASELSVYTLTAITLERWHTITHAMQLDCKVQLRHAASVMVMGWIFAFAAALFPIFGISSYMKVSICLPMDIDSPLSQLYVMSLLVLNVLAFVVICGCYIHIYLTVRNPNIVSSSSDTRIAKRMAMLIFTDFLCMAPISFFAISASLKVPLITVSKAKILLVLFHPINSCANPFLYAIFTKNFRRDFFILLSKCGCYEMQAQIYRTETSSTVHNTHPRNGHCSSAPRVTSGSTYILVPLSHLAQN
As to the kind of experiment: CHO-FSH in vitro bioactivity (CRE-luciferase reporter). The following applies: CHO cells transfected with human FSH receptor and luciferase reporter gene. It is filed as cell-based. How it is done: (§1) It has been shown that compounds of the above mentioned formula I show agonistic LH and FSH activity. […] Typically the FSH activity ranges from an activity of about 0.1% of the LH agonist stimulation to about 10% of the LH agonist stimulation.
(§2) LH agonistic activity of compounds were tested in Chinese Hamster Ovary (CHO) cells stably transfected with the human LH receptor and cotransfected with a cAMP responsive element (CRE)/promotor directing the expression of a firefly luciferase reporter gene. Binding of ligand to the Gs-coupled LH receptor will result in an increase of cAMP, which in turn will induce an increased transactivation of the luciferase reporter construct. The luciferase signal was quantified using a luminescence counter. For test compounds, EC50 values (concentration of test compound causing half-maximal (50%) stimulation) were calculated. For that purpose the software program GraphPad PRISM, version 3.0 (GraphPad software Inc., San Diego) was used.
In a similar way FSH agonistic activity of compounds were tested in CHO cells transfected with the luciferase reporter gene and the human FSH receptor.
For orientation: Reporter assays use an easily measured gene product as a stand-in for the process of interest.

The next experiment concerns the target T2, human LH receptor (Homo sapiens, UniProt P22888).
T2 construct: expressed in transfected cells; host or cells: Chinese Hamster Ovary (CHO) cells, stably transfected; cotransfected with CRE-luciferase reporter
Briefly: CHO-LH in vitro bioactivity (CRE-luciferase reporter). To be noted: CHO cells stably transfected with human LH receptor. It is filed as cell-based. The procedure: as §1, §2

In another experiment the test system is immature female mice. Briefly: In vivo bioactivity: ovulation induction in immature mice. The following applies: immature female mice primed with urinary FSH (Humegon 12.5 IU/animal); 50 mg/kg about 48 hours later; killed 24 hours after treatment. The procedure: To measure LH in vivo activity of compounds, ovulation induction in immature mice can be studied. In this assay immature female mice are primed with urinary FSH and approximately 48 hours later treated with a LH agonistic compound. The animals are killed after LH agonist treatment and the number of ova in the oviduct is microscopically assessed.
To measure in vivo activity of LH/FSH receptor agonistic compounds ovulation induction in immature mice were studied. In this assay immature female mice were primed with urinary FSH (Humegon 12.5 IU/animal). Approximately 48 hours later the animals were treated with a LH/FSH agonistic compound, the preparation of which is described in examples 1, 4, 9 and 17, at a dose-level of 50 mg/kg. The animals were killed 24 hours after LH/FSH agonist treatment and the number of ova in the oviduct was microscopically assessed. On average 10-15 animals were tested. The mean number of ova amounted 8 with the exception of the compound of example 17 (which was 0.4).

T2 sequence (P22888 27-699): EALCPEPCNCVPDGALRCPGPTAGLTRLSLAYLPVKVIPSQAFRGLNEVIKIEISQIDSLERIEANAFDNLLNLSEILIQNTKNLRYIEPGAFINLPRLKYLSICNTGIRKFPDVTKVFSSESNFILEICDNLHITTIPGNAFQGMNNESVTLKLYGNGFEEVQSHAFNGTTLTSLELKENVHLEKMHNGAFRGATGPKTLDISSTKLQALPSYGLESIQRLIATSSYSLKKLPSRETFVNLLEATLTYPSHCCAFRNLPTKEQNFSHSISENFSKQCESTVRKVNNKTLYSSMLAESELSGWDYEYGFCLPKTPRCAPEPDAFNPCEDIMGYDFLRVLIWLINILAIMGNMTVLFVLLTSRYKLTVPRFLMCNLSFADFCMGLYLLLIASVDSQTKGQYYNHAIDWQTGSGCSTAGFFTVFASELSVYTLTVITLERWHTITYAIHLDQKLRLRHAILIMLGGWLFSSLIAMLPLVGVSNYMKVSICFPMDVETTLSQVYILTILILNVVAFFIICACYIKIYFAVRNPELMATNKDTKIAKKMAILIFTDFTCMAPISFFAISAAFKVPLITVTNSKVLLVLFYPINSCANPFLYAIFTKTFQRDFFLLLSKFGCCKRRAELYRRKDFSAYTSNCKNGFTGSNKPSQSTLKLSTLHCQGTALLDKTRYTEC

A word on the EC50: it is the concentration that produces a half-maximal response. Turning to `CCN(CCOC)CC(=O)Nc1cccc(-c2nc(SC)nc3sc(C(=O)NC(C)(C)C)c(N)c23)c1` [Example 4, tert-Butyl 5-amino-2-methylthio-4-(3-((N-ethyl-N-(2-methoxyethyl)-glycinyl)-amino)-phenyl)-thieno[2,3-d]pyrimidine-6-carboxamide], the EC50 on human FSH receptor worked out at 101 nM; at human LH receptor, 7 nM. Moreover, the “mean number of ova in the oviduct” value in the experiment with immature female mice stood at 8.

Regarding `CCN(CCO)CC(=O)Nc1cccc(-c2nc(-c3ccccc3)nc3sc(C(=O)NC(C)(C)C)c(N)c23)c1` [Example 9, tert-Butyl 5-amino-2-phenyl-4-(3-((N-ethyl-N-(2-hydroxyethyl)-glycinyl)-amino)-phenyl)-thieno[2,3-d]pyrimidine-6-carboxamide], the EC50 on human FSH receptor worked out at 606 nM; at human LH receptor, 4.82 nM. Further, in the experiment with immature female mice, the “mean number of ova in the oviduct” value is recorded as 8.

Turning to `CCNc1nc(-c2cccc(NC(=O)CN(CC)CCOC)c2)c2c(N)c(C(=O)NC(C)(C)C)sc2n1` [Example 17, tert-Butyl 5-amino-2-ethylamino-4-(3-((N-ethyl-N-(2-methoxyethyl)-glycinyl)-amino)-phenyl)-thieno[2,3-d]pyrimidine-6-carboxamide], the EC50 turned out to be 1250 nM on human FSH receptor and 10.4 nM at human LH receptor. The “mean number of ova in the oviduct” value in the experiment on immature female mice was 0.4.

For the compound `CSc1nc(-c2cccc(NC(=O)CN(C)CCO)c2)c2c(N)c(C(=O)NC(C)(C)C)sc2n1` [Example 1, tert-Butyl 5-amino-2-methylthio-4-(3-((N-methyl-N-(2-hydroxyethyl)-glycinyl)-amino)-phenyl)-thieno[2,3-d]pyrimidine-6-carboxamide], the figures for the EC50 at human FSH receptor and at human LH receptor were 56.9 nM and 2.73 nM, respectively. For the same compound, in the experiment on immature female mice, the “mean number of ova in the oviduct” value stood at 8.

The values are drawn from patent US7375109B2, “Glycine-substituted thieno[2,3-d]pyrimidines with combined LH and FSH agonistic activity” (N.V. Organon, priority 2001, dated 2008).
